Earlier results on two molecules are cited in patent publication US10532971B2, “4-hydroxybutyric acid analogs” (Concert Pharmaceuticals, Inc., priority 2009, dated 2020).

Structures can show the parent of a compound that is named as a salt.

For data set [1] the following is noted: in humans.
For data set [2] the following is noted: clinical trials; dose-dependent adverse effects.

In the case of `O=C(O)CCCO` [4-hydroxybutyric acid, 4-Hydroxybutyric acid], the half life in data set [1] is 30 to 60 min.

With `O=C(O)CCCO` [sodium oxybate, sodium salt of 4-hydroxybutyric acid], the “rates of headache, nausea, and dizziness” value in data set [2] was 17-22%.
